# Experimental data as given in publication PMC11352258, “The Influence of Betulin and Its Derivatives on Selected Colorectal Cancer Cell Lines’ Viability and Their Antioxidant Systems” (Cells, 2024).
# Where “and” joins values, the source holds several entries; their conditions need not be identical. Identical values can stand only once. Like-named read-outs stand apart in the source and are kept apart here.
# Columns and labels:
# RKO cells [1] = test: MTT cytotoxicity assay, RKO; details: Homo sapiens, 24 h; for IC50: read-out: IC50 value
# Method: (§1) Six colorectal cancer cell lines, RKO, HT29, DLD-1, HCT116, Caco2 and SW1116 (CRL-2577, HTB-38, CCL-221, CCL-247, HTB-37, CCL-233; ATCC, Manassas, VA, USA, respectively, for CRC lines), and one normal cell line, CCD-841CoN (CRL-1790, ATCC, USA), were routinely cultured at 37 °C in a 5% CO2 incubator (Direct Heat CO2; Thermo Scientific, Waltham, MA, USA) in cell line-appropriate culture medium according to the manufacturer’s recommendations. Eagle’s minimum essential medium (EMEM) was used to culture RKO, Caco2 and CCD-841CoN lines, while McCoy’s 5A medium was used for HT29 and HCT116 lines. DLD-1 cells were grown in RPMI-1640 medium, whereas SW1116 cells were maintained in Leibovitz’s L-15 medium. All culture media were supplemented with 10% fetal bovine serum (EuroClone, Milan, Italy), and gentamycin at the concentration […] (BioWhittaker, Lonza, Basel, Switzerland) was also applied to prevent culture contamination.
# (§2) For this purpose, cells were exposed to the test compound for 24 h at concentrations of 0.1, 1, 10, 20, 50 and 100 μg/mL. Control cells were not treated with the compounds. MTT (0.25 mg/mL) was then added to the cultures and incubated for 3 h at 37 °C. After a time, the cells were washed with phosphate buffered saline (PBS), and next, formazan dye was dissolved in 100 μL of dimethyl sulfoxide (Sigma-Aldrich, St Louis, MO, USA). Absorbance was measured at 540 nm using a Wallac 1420 VICTOR microplate reader (PerkinElmer, Waltham, MA, USA).
# HT29 cells = test: MTT cytotoxicity assay, HT29; type: cell-based; details: Homo sapiens, read-out: IC50 value
# Description: (§3) Control cells were not treated with the compounds.
# SW1116 cells [2] = test: MTT cytotoxicity assay, SW1116; details: for IC50: read-out: IC50 value
# Method: as §1, §2
# CCD-841CoN cells = test: cells; type: cell-based; details: Homo sapiens, 24 h, read-out: IC50 value
# Description: as §3
# DLD-1 cells = test: MTT cytotoxicity assay, DLD-1; type: cell-based; details: Homo sapiens, read-out: IC50 value
# Description: as §3
# HCT116 cells = test: MTT cytotoxicity assay, HCT116; type: cell-based; details: Homo sapiens, read-out: IC50 value
# Description: as §3
# Caco2 cells = test: MTT cytotoxicity assay, Caco2; type: cell-based; details: Homo sapiens, read-out: IC50 value
# [3] = tested on: CAT gene expression in RKO cells; test: CAT mRNA, real-time RT-qPCR, RKO; type: cell-based; details: 10 µg/mL, 24 h
# Method: (§4) In addition, two colorectal cancer cell lines, RKO and SW1116, were distinguished based on a different response to the EB5 derivative. To perform subsequent analyses, the selected CRC lines were treated with EB5 derivative at a concentration of 10 µg/mL for 24 h. Untreated cells were used as a negative control. Three biological replicates were performed.
# (§5) Total RNA from treated cells was extracted using TRIzol reagent (Sigma-Aldrich, St Louis, MO, USA) according to the manufacturer’s instructions. The obtained RNA was assessed qualitatively and quantitatively by agarose gel electrophoresis and by spectrophotometric measurement using MaestroNano MN-913 (MaestroGen Inc., Las Vegas, NV, USA), respectively. The obtained extracts provided the starting material for the assessment of genes changes at the mRNA level.
# (§6) Changes in the expression of SOD1, SOD2, CAT and GPX3 genes involved in antioxidant systems were assessed by real-time RT-qPCR using a LightCycler® 480 System apparatus (Roche, Basel, Switzerland). A commercially purchased GoTaq® 1-Step RT-qPCR System (Promega, Madison, WI, USA) was used, while the primers and reaction conditions were the same as in the previous study performed by Kruszniewska-Rajs et al.. GAPDH was used as the reference gene. The mRNA expression level studied genes were then determined by the 2^−ΔCt relative quantification method. All samples were tested in triplicate. The specificity of the reaction was evaluated based on the melting temperature curve, as well as using electrophoresis of the amplification products in a 2% agarose gel.
# [4] = tested on: SOD2 gene expression in SW1116 cells; test: SOD2 mRNA, real-time RT-qPCR, SW1116; type: cell-based; details: SW1116, 10 µg/mL, 24 h
# Method: as §4, §5, §6
# [5] = tested on: catalase (CAT) activity in RKO cells; test: CAT activity in RKO cells; type: cell-based; details: 10 µg/mL, 24 h
# Method: as §4
# (§7) To examine the antioxidant capacity of the cells as well as lipid peroxidation and to evaluate the activity of antioxidant enzymes, the cells were suspended in lysis buffer (containing 4 mg of […]™ Protease Inhibitor Cocktail and 10 µL of Phosphatase Inhibitor Cocktail 3 in 1 mL of PBS; Sigma-Aldrich, St Louis, MO, USA). Subsequently, the cells were placed in liquid nitrogen for 30 min, followed by storage at −80 °C until further analysis.
# (§8) Superoxide dismutase (SOD), glutathione peroxidase (GPx) and catalase (CAT) activities were assessed using a commercially purchased Cayman Chemicals Superoxide Dismutase Assay Kit, a Cayman Chemicals Glutathione Peroxidase Assay Kit and a Catalase Assay Kit (Cayman Chemicals, Ann Arbor, MI, USA), respectively, according to the manufacturer’s recommendations and based on a previous study. […] The level of change in absorbance was measured spectrophotometrically at the appropriate wavelength for the assay, i.e., for SOD in the range 440–460 nm, for GPx at 340 nm and for CAT at 540 nm.
# [6] = tested on: superoxide dismutase (SOD) activity in RKO cells; test: SOD activity in RKO cells; type: cell-based; details: 10 µg/mL, 24 h
# Method: as §4, §7, §8
# in vitro = type: cell-based; details: human
# Description: as §3
# [7] = tested on: catalase (CAT) activity in SW1116 cells; test: CAT activity in SW1116 cells; type: cell-based; details: SW1116, 10 µg/mL, 24 h
# Method: as §4, §7
# Superoxide dismutase (SOD), glutathione peroxidase (GPx) and catalase (CAT) activities were assessed using a commercially purchased Cayman Chemicals Superoxide Dismutase Assay Kit, a Cayman Chemicals Glutathione Peroxidase Assay Kit and a Catalase Assay Kit (Cayman Chemicals, Ann Arbor, MI, USA), respectively, according to the manufacturer’s recommendations and based on a previous study. The cell supernatant from previously prepared cell lysates of the tested lines provided material for further analyses. The level of change in absorbance was measured spectrophotometrically at the appropriate wavelength for the assay, i.e., for SOD in the range 440–460 nm, for GPx at 340 nm and for CAT at 540 nm.
# SW1116 cells [8] = test: Lipid peroxidation, MDA assay, SW1116; type: cell-based; details: SW1116, 10 µg/mL, 24 h
# Method: (§9) In addition, two colorectal cancer cell lines, RKO and SW1116, were distinguished based on a different response to the EB5 derivative. […] Untreated cells were used as a negative control. Three biological replicates were performed. To examine the antioxidant capacity of the cells as well as lipid peroxidation and to evaluate the activity of antioxidant enzymes, the cells were suspended in lysis buffer (containing 4 mg of […]™ Protease Inhibitor Cocktail and 10 µL of Phosphatase Inhibitor Cocktail 3 in 1 mL of PBS; Sigma-Aldrich, St Louis, MO, USA). Subsequently, the cells were placed in liquid nitrogen for 30 min, followed by storage at −80 °C until further analysis. To assess the level of lipid peroxidation, the Malondialdehyde Assay Kit (Aoxre BioSciences, Burlingame, CA, USA) was used, according to the manufacturer’s recommendations.
# RKO cells [9] = test: Lipid peroxidation, MDA assay, RKO; type: cell-based; details: 10 µg/mL, 24 h
# Method: as §9
# [10] = tested on: SOD2 gene expression in RKO cells; test: SOD2 mRNA, real-time RT-qPCR, RKO; type: cell-based; details: 10 µg/mL, 24 h
# Method: as §4, §5, §6
structure (smiles),measurement,setting,value
C=C(C)[C@@H]1CC[C@]2(COC(=O)c3cn(CP(=O)(OCC)OCC)nn3)CC[C@]3(C)C(CCC4[C@@]5(C)CC[C@H](O)C(C)(C)C5CC[C@]43C)C12 (stereo partly shown) [TR50],IC50,RKO cells [1],4.33 µg/mL and 6.29 µM
same,IC50,"HT29 cells; HT-29, 24 h",10.3 µg/mL and 14.9 µM
same,IC50,"SW1116 cells [2]; Homo sapiens, SW 1116, 24 h",33.1 µg/mL and 48.1 µM
same,sensitivity of cells to the compound,"SW1116 cells [2]; SW1116, 10 µg/mL, in comparison with other CRC lines and normal colonocytes",lack of sensitivity
same,IC50,CCD-841CoN cells; CCD-841CoN,18.3 µg/mL and 26.6 µM
same,IC50,"DLD-1 cells; DLD-1, 24 h",7.87 µg/mL and 11.4 µM
same,IC50,"HCT116 cells; HCT-116, 24 h",6.71 µg/mL and 9.76 µM
same,IC50,"Caco2 cells; Caco-2, 24 h",13 µg/mL and 18.9 µM
"C#CC(=O)OC[C@]12CC[C@@H](C(=C)C)[C@@H]1[C@H]1CC[C@@H]3[C@@]4(C)CC[C@H](O)C(C)(C)[C@@H]4CC[C@@]3(C)[C@]1(C)CC2 [EB5, 28-propynylobetulin]",CAT gene expression vs. 5FU,[3],significant increase in expression
same,CAT gene expression vs. cisplatin,[3],significant decrease in expression
same,viability at 10 µg/mL,RKO cells [1],≥ 50%
same,IC50,RKO cells [1],12.2 µg/mL and 24.6 µM
same,SOD2 gene expression vs. 5FU,[4],Decreased SOD2 gene expression
same,SOD2 gene expression vs. cisplatin,[4],Decreased SOD2 gene expression
same,IC50,"HT29 cells; HT-29, HT29, MTT, 24 h",8.25 µg/mL and 16.7 µM
same,viability at 10 µg/mL,"SW1116 cells [2]; Homo sapiens, SW 1116, 24 h",≥ 50%
same,IC50,"SW1116 cells [2]; Homo sapiens, SW 1116, 24 h",34.4 µg/mL and 69.5 µM
same,CAT activity compared to the betulin-treated cells,[5],slight decrease
same,SOD activity compared to cells treated with betulin,[6],modest increase
same,"viability at 24 h, 100 μg/mL",in vitro,≥ 50%
same,IC50,"CCD-841CoN cells; CCD-841CoN normal cells, MTT",> 100 µg/mL and > 202 µM
same,IC50,"DLD-1 cells; DLD-1, MTT, 24 h",11.1 µg/mL and 22.4 µM
same,catalase activity compared to the control,[7],did not cause changes
same,IC50,"HCT116 cells; HCT 116, MTT, 24 h",16.7 µg/mL and 33.7 µM
same,MDA level compared to the control,SW1116 cells [8],did not cause changes
same,increase in MDA levels compared to the control cells,RKO cells [9],about 98.0%
same,IC50,"Caco2 cells; Caco-2, Caco2, MTT, 24 h",16.9 µg/mL and 34.2 µM
same,SOD2 gene expression vs. cisplatin,[10],significant decrease in SOD2 gene expression
